Assays:
PC-3 = assay: Cytotoxicity screening, PC-3 cells; format: cell-based; settings: Homo sapiens; for inhibition at 10 µM: treatment at 10 μM, 24 h treatment then 96 h incubation, read-out: Inhibition: percent cell death normalized against controls; for IC50: read-out: IC50, drug dose to inhibit 50% cell proliferation
Procedure: (§1) Tumor cells were maintained as monolayers in 75-cm^2 tissue culture flasks using their respective cell culture medium containing 10% fetal bovine serum and 2 mM L-glutamine. The cells were incubated at 37° C. under a humidified 5% CO2: air atmosphere (standard conditions) for five days. The cells were harvested when in mid-log growth and their concentration was determined using a particle counter (Beckman Coulter, Inc, Fullerton, Calif.). An aliquot of the cell suspension was diluted in culture medium for delivery to a 24-well tissue culture plate at a range of 10,000 to 30,000 per 1 mL per well. After 24 h, quadruplicate wells were inoculated with either vehicle (untreated controls) or test compounds at various concentrations. After 24 h of incubation, the wells were aspirated, washed once with 1 mL PBS, and refilled with 1 mL treatment-free medium. Following a 96-h incubation under the initial treatment conditions, the viable cells were counted and the numbers were normalized to the percent of untreated controls. The extent of cytotoxicity in treated wells as compared to the controls and the dose that inhibits 50% cell proliferation (IC50) was calculated.

Panc-1 = assay: Cytotoxicity screening, Panc-1 cells; format: cell-based; settings: Homo sapiens; for inhibition at 10 µM: Panc-1, treatment at 10 μM, 24 h treatment then 96 h incubation, read-out: Inhibition: percent cell death normalized against controls
Procedure: as §1

MIA PaCa-2 = assay: Cytotoxicity screening, MIA PaCa-2 cells; format: cell-based; settings: Homo sapiens; for inhibition at 10 µM: treatment at 10 μM, 24 h treatment then 96 h incubation; for IC50: read-out: IC50, drug dose to inhibit 50% cell proliferation
Procedure: as §1

LS174-T = assay: Cytotoxicity screening, LS174-T cells; format: cell-based; settings: Homo sapiens, LS174T; for inhibition at 10 µM: treatment at 10 μM, 24 h treatment then 96 h incubation; for IC50: read-out: IC50, drug dose to inhibit 50% cell proliferation
Procedure: as §1

[1] = tested on: LS174-T human colon carcinoma tumors; assay: Evaluation of antitumor activity, nude mouse model of LS174-T tumors; format: in vivo; settings: female nude mice, sc LS174-T tumors, iv qdx5; untreated control 15 days; n=8, p=0.043
Procedure: Antitumor activity of compound II-e was evaluated using a nude mouse model of Ls174-T human colon cancer tumors. Female nude mice were implanted subcutaneously (sc) with LS174-T human colon carcinoma cells (10^7 cells/mouse). When tumors reached a cross diameter of 7 mm, the mice were randomized into 2×8 groups and were injected iv with either the vehicle (5% dextrose solution containing 20% 50:50, Cremophore EL: ethanol)) or a solution II-e in the same solvent system. The protocol used was qdx5 injections every 24 h. Tumor volumes were monitored by caliper measurement 3× weekly (see FIG. 1 wherein circles correspond to inactivated compound IIe; triangles correspond to vehicle; and squares correspond to compound II-e).

[2] = read-out: Inhibition: percent cell death normalized against controls
[3] = measured at 7.5 μM, read-out: Inhibition: percent cell death normalized against controls

SMILES: OC(CSCC(O)c1ccc(C(F)(F)F)cc1)c1ccc(C(F)(F)F)cc1 (stereo not shown) [II-d]
- inhibition at 10 µM (PC-3): 43 ± 4%
- inhibition at 10 µM (Panc-1): 27 ± 5%
- inhibition at 10 µM (MIA PaCa-2; [2]): 11 ± 4%
- inhibition at 10 µM (LS174-T; [2]): 33 ± 6%

SMILES: CC(=O)C(CSCC(C(C)=O)c1cc(C(F)(F)F)cc(C(F)(F)F)c1)c1cc(C(F)(F)F)cc(C(F)(F)F)c1 (stereo not shown) [II-e bis-OAc, 4,4′-thiobis(3-(3,5-bis(trifluoromethyl)phenyl)butan-2-one)]
- inhibition at 10 µM (MIA PaCa-2; [2]): 29 ± 6%

SMILES: OC(CSCC(O)c1ccc(OC(F)(F)F)cc1)c1ccc(OC(F)(F)F)cc1 (stereo not shown) [II-c]
- inhibition at 10 µM (PC-3): 40 ± 7%
- inhibition at 10 µM (Panc-1): 43 ± 9%
- inhibition at 10 µM (MIA PaCa-2; [2]): 34 ± 14%
- inhibition at 10 µM (LS174-T; [2]): 13 ± 7%

SMILES: COc1cc(/C=C/C(=O)CC(=O)/C=C/c2ccc(O)c(OC)c2)ccc1O [curcumin, reference compound]
- IC50 (PC-3): 12 µM
- IC50 (MIA PaCa-2): 9 µM
- IC50 (LS174-T): 6.5 µM

SMILES: OC(CSCC(O)c1ccccc1)c1ccccc1 (stereo not shown) [II-a]
- inhibition at 10 µM (PC-3): 5 ± 9%

SMILES: OC(CSCC(O)c1cc(C(F)(F)F)cc(C(F)(F)F)c1)c1cc(C(F)(F)F)cc(C(F)(F)F)c1 (stereo not shown) [II-e]
- IC50 (PC-3): 4.4 µM
- inhibition at 10 µM (PC-3): 78 ± 4%
- IC50 (Panc-1; PANC-1, read-out: IC50, drug dose to inhibit 50% cell proliferation): 6.3 µM
- inhibition at 10 µM (Panc-1): 80 ± 4%
- inhibition at 7.5 µM (MIA PaCa-2; [3]): 94 ± 2%
- IC50 (MIA PaCa-2): 3.7 µM
- inhibition at 10 µM (MIA PaCa-2; [2]): 94 ± 2%
- Tumor doubling time [1]: 30 days
- inhibition at 7.5 µM (LS174-T; [3]): 96 ± 1%
- IC50 (LS174-T): 3.6 µM
- inhibition at 10 µM (LS174-T; [2]): 96%

SMILES: COc1cccc(C(O)CSCC(O)c2cccc(OC)c2OC)c1OC (stereo not shown) [II-b]
- inhibition at 10 µM (PC-3): 8 ± 4%
- inhibition at 10 µM (Panc-1): 0%
- inhibition at 10 µM (MIA PaCa-2; [2]): 0%
- inhibition at 10 µM (LS174-T; [2]): 0%

Source: patent publication US8686190B2, “Bis-aromatic anticancer agents” (The UAB Research Foundation, priority 2008, dated 2014)
